The values that follow come from US10322123B2, “Compound for anti-cancer therapy that acts by targeting GOF mutant P53 and stimulates P73 to restore the P53 pathway signaling” (The Penn State Research Foundation, priority 2014, dated 2019).

Test [1] deals with p53 transcriptional activity. Put plainly: p53-responsive luciferase reporter bioluminescence imaging. Conditions: for 1/slope of dose-dependent p53-responsive reporter bioluminescence: 24 hr. It is filed as cell-based, human. On the procedure:
Functional cell-based screening for small molecules that can increase p53-transcriptional activity was performed using noninvasive bioluminescence imaging in human colorectal cancer cells (SW480, DLD-1, HCT116 and p53-null HCT116) that stably express a p53-regulated reporter, as previously described (Wang W, et al., Proc Natl Acad Sci USA 2006; 103: 11003-8). Cells were seeded in 96-well plates at a density of 5×10^4 cells/well. […] Cells treated with 5 μM of Prodigiosin were used as a positive control, and DMSO treatment was used as a negative control in each screened plate. The bioluminescence in each treatment was normalized to DMSO treatment.
SW480, DLD-1, HCT116 and p53-null HCT116 cells which stably express a p53-regulated luciferase reporter were generated as previously described (Wang et al., 2006, Proc. Natl. Acad. Sci. USA 103:11003-11008; Wang et al., 2003, Cancer Biol. Ther. 2:196-202). MRCS, Wi38, Hop92 and RXF393 were obtained from ATCC and cultured as recommended. Cells were regularly authenticated by bioluminescence, growth and morphological observation.

For the next test, the target named is T1, p73 (Homo sapiens, UniProt O15350).
T1 construct: endogenous in cells
Briefly: p73 protein level Western blot. The format is cell-based. The conditions noted are these: mutant p53-expressing tumor cells, 8 hours. How it is done: (§1) Proteins were extracted from cells and electrophoresed through 4-12% SDS-PAGE then transferred to PVDF membranes. The primary antibodies indicated in the figures were incubated with the transferred PVDF in blocking buffer at 4° C. overnight. Antibody binding was detected on PVDF with appropriate IRDye-secondary antibodies (LI-COR Biosciences, USA) by the ODYSSEY infrared imaging system.
Background: Immunoblotting shows a protein as a band on a membrane.

A further test addresses mutant p53 (Homo sapiens, UniProt P04637, P309S/R273H). Put plainly: Phosphorylation Western blot. The format is cell-based. Also on record: Phosphorylation of mutant p53 at Thr 55 and phosphorylation of MDM2 at Ser166 were found in SW480 cancer cells; endogenous in cells; host or cells: SW480. Conditions: SW480 cells. How it is done: as §1
Test [2] deals with T2, wild-type p53 protein epitope (Homo sapiens, UniProt P04637, R175H).
T2 construct: endogenous in cells; host or cells: RXF393
Briefly: Wild-type p53 conformation with Pab1620 antibody. Conditions: RXF393 cells, 24 hr. It is filed as cell-based. On the procedure:
Five hundred micrograms of cell lysate were incubated with 2 μg of antibody overnight at 4° C. Then, 25 μl of protein A-Sepharose beads were added to the lysates. The immunoprecipitated proteins were eluted from protein A-Sepharose beads by boiling with 2× sample buffer and subjected to SDS-PAGE.

T1 sequence (O15350 whole entry): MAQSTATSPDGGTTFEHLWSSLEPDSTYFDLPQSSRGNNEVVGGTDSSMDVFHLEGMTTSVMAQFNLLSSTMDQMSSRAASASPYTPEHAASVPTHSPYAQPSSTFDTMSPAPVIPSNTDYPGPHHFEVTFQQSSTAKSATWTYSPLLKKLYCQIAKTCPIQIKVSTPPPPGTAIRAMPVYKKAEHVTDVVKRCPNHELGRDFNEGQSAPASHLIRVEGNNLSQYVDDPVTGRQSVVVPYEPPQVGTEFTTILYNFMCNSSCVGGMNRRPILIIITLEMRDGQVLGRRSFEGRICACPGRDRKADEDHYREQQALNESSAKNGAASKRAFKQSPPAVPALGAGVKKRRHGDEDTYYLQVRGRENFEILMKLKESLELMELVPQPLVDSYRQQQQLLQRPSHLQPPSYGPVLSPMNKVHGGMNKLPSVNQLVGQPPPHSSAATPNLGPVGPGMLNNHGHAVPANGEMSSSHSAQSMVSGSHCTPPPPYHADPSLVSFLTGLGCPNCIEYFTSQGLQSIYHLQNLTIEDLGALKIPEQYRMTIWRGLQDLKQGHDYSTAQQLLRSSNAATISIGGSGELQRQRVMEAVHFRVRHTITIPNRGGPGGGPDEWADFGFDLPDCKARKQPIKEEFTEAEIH

On to `CN1CCN(C(=O)/C=C/c2ccc([N+](=O)[O-])o2)CC1` [NSC59984, (E)-1-(4-methylpiperazin-1-yl)-3-(5-nitrofuran-2-yl)prop-2-en-1-one], for which the “1/slope of dose-dependent p53-responsive reporter bioluminescence” value is recorded as 29.75 in test [1] (DLD-1 (mutant p53 S241F)); 31.37 in test [1] (SW480 (mutant p53 R273H, P309S)); 102.9 in test [1] (p53-null HCT116 cells); 328.4 in test [1] (wild-type p53-expressing HCT116 cells). In addition, the p53-responsive bioluminescence entry in test [1] (SW480 cells, 10 μM) is “increases”; in test [1] (p53-null HCT116 cells, increasing doses) it was “slightly induced”; in test [1] (p73-overexpressing (Ad-p73) SW480 cells vs wild-type p53-overexpressing SW480 cells, 8 hr) it was “significantly increased”; in test [1] (wild-type p53-expressing HCT116 cells, increasing doses), “no significant increase”. Further, the “NSC59984-induced p53-responsive bioluminescence” value in test [1] (p73 knock-down SW480 cells, 8 hr) is given as “abrogated”. At p73, the p73 protein levels result is on record as “not found to be increased”. For the same compound, on mutant p53, the “phosphorylation of mutant p53” value was “phosphorylated at Thr55”. In addition, in test [2], the “immunohistochemistry staining with Pab1620” value is recorded as “no staining”. In test [2], the “immunoprecipitation of p53 protein with Pab1620 antibody” value is given as “no p53 protein bound”.
